Columns and labels:
[1] = molecular target: T1, Strep‐TP‐spacer‐RT‐His8 (HBVpol 1‐690aa; TP‐RT) (Hepatitis B virus ar/Japan/S-207/1988, UniProt Q9YZR5); experiment: plate assay, inhibition of DIG-labelled epsilon RNA binding to immobilised protein, luminescence; settings: 5 pmol DIG-epsilon RNA WT, pH 7.5, room temperature, 3 hr
T1 construct: gene P; residues 1-690 of HBV polymerase (TP, spacer, RT); no polymerase activity detected

[2] = molecular target: T1, Strep‐TP‐spacer‐RT‐His8 (HBVpol 1‐690aa; TP‐RT); experiment: surface plasmon resonance; format: binding
[3] = molecular target: T2, Strep‐TP‐spacer‐RT‐His8 (HBVpol 1‐690aa; TP‐RT) (Hepatitis B virus ar/Japan/S-207/1988, UniProt Q9YZR5); experiment: plate assay, inhibition of DIG-labelled epsilon RNA binding to immobilised protein, luminescence; settings: 5 pmol DIG-epsilon RNA WT, pH 7.5, room temperature, 3 hr; binding considered nonspecific by the authors; unreliable
T2 construct: gene P; residues 1-690 of HBV polymerase (TP, spacer, RT); no polymerase activity detected
T2 sequence (Q9YZR5 1-690): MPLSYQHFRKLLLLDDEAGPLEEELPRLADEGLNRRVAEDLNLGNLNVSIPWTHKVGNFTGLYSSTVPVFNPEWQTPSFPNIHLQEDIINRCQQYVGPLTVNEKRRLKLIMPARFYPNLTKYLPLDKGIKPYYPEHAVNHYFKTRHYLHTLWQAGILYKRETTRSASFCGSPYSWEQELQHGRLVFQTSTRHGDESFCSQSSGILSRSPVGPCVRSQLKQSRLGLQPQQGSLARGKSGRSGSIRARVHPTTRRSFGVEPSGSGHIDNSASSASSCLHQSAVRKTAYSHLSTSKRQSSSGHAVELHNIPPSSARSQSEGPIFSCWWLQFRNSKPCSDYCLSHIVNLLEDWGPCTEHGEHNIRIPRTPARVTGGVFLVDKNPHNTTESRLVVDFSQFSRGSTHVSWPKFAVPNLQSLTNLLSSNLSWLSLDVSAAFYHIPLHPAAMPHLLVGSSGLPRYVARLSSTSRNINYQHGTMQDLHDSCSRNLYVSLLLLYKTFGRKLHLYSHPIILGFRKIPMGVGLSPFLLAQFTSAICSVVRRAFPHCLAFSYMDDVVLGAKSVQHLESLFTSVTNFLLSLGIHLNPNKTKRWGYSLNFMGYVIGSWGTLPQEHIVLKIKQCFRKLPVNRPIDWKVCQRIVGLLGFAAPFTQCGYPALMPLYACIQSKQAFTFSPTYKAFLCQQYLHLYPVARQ

[4] = molecular target: T2, Strep‐TP‐spacer‐RT‐His8 (HBVpol 1‐690aa; TP‐RT); experiment: surface plasmon resonance; settings: binding considered nonspecific by the authors (also binds GFP control); unreliable
[5] = molecular target: T3, Strep-TP-spacer-RT-His8 (HBV polymerase TP-spacer-RT), refolded (Hepatitis B virus, UniProt Q9YZR5 1-690); experiment: streptavidin plate binding assay (anti-DIG-HRP luminescence); refolded protein; 5 pmol RNA; 50 mM Tris-HCl pH 7.5, 150 mM NaCl, 1 mM EDTA, 0.05% NP-40, 1 mg/ml BSA, 1 ug/ml poly(I/C), 0.1% protease inhibitor cocktail, 2 mM DTT; room temperature, 3 h (competition 30 min); settings: protein: recombinant, tags: N-terminal Strep, self-annealed
T3 sequence: T2 sequence (Q9YZR5 1-690)

[6] = molecular target: T4, His6-SUMO-TP (Hepatitis B virus, UniProt Q9YZR5 1-177); experiment: nickel plate binding assay (anti-DIG-HRP luminescence); 5 pmol RNA; no specific binding; 50 mM Tris-HCl pH 7.5, 150 mM NaCl, 1 mM EDTA, 0.05% NP-40, 1 mg/ml BSA, 1 ug/ml poly(I/C), 0.1% protease inhibitor cocktail, 2 mM DTT; room temperature, 3 h (competition 30 min); settings: protein: recombinant; tags: N-terminal His6-SUMO; hairpin with central bulge and apical loop, self-annealed
T4 sequence: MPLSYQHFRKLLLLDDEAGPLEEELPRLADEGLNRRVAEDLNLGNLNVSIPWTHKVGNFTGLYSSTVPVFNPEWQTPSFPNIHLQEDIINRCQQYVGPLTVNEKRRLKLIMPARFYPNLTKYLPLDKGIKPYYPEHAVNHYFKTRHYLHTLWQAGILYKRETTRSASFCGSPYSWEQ

Molecule: CCCCCCCC/C=C\CCCCCCCC(=O)NCCc1ccc(O)c(O)c1 [N‐oleoyldopamine]
- IC50 [1]: ~0.41 µM
- Kd [2]: 0.072 µM

Molecule: NC(Cc1cc(O)c(O)cc1O)C(=O)O (racemic) [6‐hydroxy‐DL‐DOPA]
- IC50 [3]: ~ 6.6 µM
- KD [4]: 0.011 µM

B1: epsilon dBdL RNA (central bulge and apical loop deleted) (structured_RNA)
RNA: UCUCAUGUUCAUGUCCUAGCCUCCAAUUGGGUGGCUUUGGGGCAUGGACAUUGAC
- binding result ([5]; hairpin): no binding

B2: epsilon WT RNA (structured_RNA)
RNA: UCUCAUGUUCAUGUCCUACUGUUCAAGCCUCCAAGCUGUGCCUUGGGUGGCUUUGGGGCAUGGACAUUGA
- binding result ([5]; hairpin with central bulge and apical loop): binds
- binding result [6]: no binding

— PMC7496097, “Establishment of a system for finding inhibitors of ε RNA binding with the HBV polymerase” (Genes to Cells, 2020)
